{
  "source": "patent US20230323395A1",
  "about": "“METHODS AND COMPOSITIONS FOR THE PRODUCTION OF ADENO-[…]” (Homology Medicines, Inc., priority 2021, published 2023)",
  "type_in_all_cases": "cell-based",
  "key": {"[1]": {"test_system": "HEK293 cells (AAV producer cells)", "test": "AAV productivity with culture media additives supplemented two hours post-transfection, shake flasks (Example 3)", "method": "(§1) For each parameter tested, HEK293 cells were expanded by shake flask culture with a target seed density of >0.25E6 viable cells/mL and a target final density of <6E6 viable cells/mL. Expanded cells were inoculated into an Applikon 3 L Glass Bioreactor containing the appropriate amount of cell culture medium prior to transfection at a 2 L working volume.\n(§2) Cell transfection was performed generally as described in Grieger et al. (2016) Molecular Therapy 24(2): 287-297. Briefly, transfection mixes were prepared by mixing calculated volumes of vector(s), transfection media, and polyethylenimine (PEI), all at ambient temperature, and allowed to equilibrate before the transfection mixes were added to the cells. […] Productivity was measured by vector genome titer and capsid yield. Vector genome (VG) titer was determined by droplet digital PCR (ddPCR) by standard methods using primer/probe sets specific to the transgene payload of the vector comprising the transgene. Capsid yield was determined using enzyme-linked immunosorbent assays (ELISAs) by standard methods with an immobilized antibody directed against an epitope of the capsid as encoded by the vector comprising the capsid sequences. Percentage of intact vector genomes (% Full capsids) was calculated by dividing the vector genome productivity determined by ddPCR by the number of capsids determined by ELISA. […]"}, "[2]": {"test_system": "HEK293 cells (AAV producer cells)", "test": "DMSO time course analysis of AAV productivity (Example 4)", "details": "1.5% (v/v) DMSO added two hours pre-transfection and up to 30 minutes post-transfection; compared to the other time points tested", "method": "as §1, §2"}, "[3]": {"test_system": "second HEK293 cell line (AAV producer cells)", "test": "AAV productivity with DMSO supplementation 30-120 minutes post-transfection, 3 L single-use bioreactors (Example 6)", "details": "DMSO 120 minutes vs 30 minutes post-transfection, pH 7.0, 39° C.", "method": "(§3) Cell transfection was performed generally as described in Grieger et al. (2016) Molecular Therapy 24(2): 287-297. Briefly, transfection mixes were prepared by mixing calculated volumes of vector(s), transfection media, and polyethylenimine (PEI), all at ambient temperature, and allowed to equilibrate before the transfection mixes were added to the cells. Post-transfection bioreactor setpoint shifts were performed 2 hours post-transfection, and cells were harvested 72 hours post-transfection. Harvested cells were lysed as described in Grieger et al. (2016) Molecular Therapy 24(2): 287-297. Crude lysate samples were collected following centrifugation to remove cellular debris. Productivity was measured by vector genome titer and capsid yield. Vector genome (VG) titer was determined by droplet digital PCR (ddPCR) by standard methods using primer/probe sets specific to the transgene payload of the vector comprising the transgene. Capsid yield was determined using enzyme-linked immunosorbent assays (ELISAs) by standard methods with an immobilized antibody directed against an epitope of the capsid as encoded by the vector comprising the capsid sequences. Percentage of intact vector genomes (% Full capsids) was calculated by dividing the vector genome productivity determined by ddPCR by the number of capsids determined by ELISA.\nBased on the findings above, the effects of post-transfection pH, and the effect of supplementing the culture media with DMSO at 30-120 minutes post-transfection were further tested using a different representative AAV particle. Experiments were performed with a second HEK293 cell line according to the methods described in Examples 1 and 5 using 3 L single-use bioreactors.\nAAV productivity, in terms of vector genome (VG) titer (FIG. 8A), capsid yield (FIG. 8B), and percent intact vector genomes (% Full; FIG. 8C), was measured as described in Example 1."}, "[4]": {"test_system": "second HEK293 cell line (AAV producer cells)", "test": "AAV productivity at different DMSO concentrations, shake flasks (Example 7)", "method": "as §3\nThe conditions of DMSO supplementation were further tested using different representative AAV particles. Experiments were performed with a second HEK293 cell line according to the methods described in Example 1 using shake flasks.\nAAV productivity, in terms of vector genome (VG) titer (FIGS. 9A and 10A), capsid yield (FIGS. 9B and 10B), and percent intact vector genomes (% Full; FIGS. 9C and 10C), was measured as described in Example 1."}, "[5]": {"details": "FIG. 9, 0.5% to 2.25% DMSO two hours post-transfection, up to a DMSO concentration of 1.5%"}, "[6]": {"details": "FIG. 10, 0.75% DMSO two hours post-transfection compared with 0% DMSO"}, "[7]": {"details": "FIG. 10, 1.5% DMSO two hours post-transfection compared with 0.75% DMSO"}},
  "data": [
    {"compound": "C[S+](C)[O-]", "note": "[DMSO, dimethyl sulfoxide]", "values": [
      {"measurement": "VG titer", "setting": "[1]; additive supplemented two hours post-transfection, ddPCR on crude lysate, over control conditions with no additive", "result": "general increase"},
      {"measurement": "percent full capsids", "setting": "[1]; supplemented two hours post-transfection, as compared to the other additives", "result": "higher percent full capsids"},
      {"measurement": "percent yield of full capsids", "setting": "[2]", "result": "higher percent yield of full capsids"},
      {"measurement": "VG titers", "setting": "[3]", "result": "similar"},
      {"measurement": "capsid yields", "setting": "[3]", "result": "similar"},
      {"measurement": "intact vector genomes", "setting": "[3]", "result": "similar"},
      {"measurement": "percent full capsids", "setting": "[4]; FIG. 9, 0.5% to 2.25% DMSO two hours post-transfection", "result": "increased"},
      {"measurement": "VG titer", "setting": "[4]; [5]", "result": "increased"},
      {"measurement": "capsid titer", "setting": "[4]; [5]", "result": "increased or comparable"},
      {"measurement": "percent full capsids", "setting": "[4]; FIG. 9, 0.5%, 0.75%, 1.5% and 2.25% DMSO compared with each other", "result": "comparable"},
      {"measurement": "VG titer", "setting": "[4]; [6]", "result": "increased"},
      {"measurement": "capsid titer", "setting": "[4]; [6]", "result": "increased"},
      {"measurement": "percent full capsids", "setting": "[4]; [6]", "result": "comparable"},
      {"measurement": "VG titer", "setting": "[4]; [7]", "result": "comparable"},
      {"measurement": "capsid titer", "setting": "[4]; [7]", "result": "decreased"},
      {"measurement": "percent full capsids", "setting": "[4]; [7]", "result": "increased"}
    ]}
  ]
}
